Laboratory results reported in US9285319B2, “Nucleic acid base analogs with quenching and fluorescent activities and applications thereof” (RIKEN, priority 2010, dated 2016).
Read-outs that look alike come from different tables or passages of the source.

Legend:
[1] = Fluorescence intensity of fluorescent molecule (Cy3) linked to Px base having a quenching activity; type: physicochemical; details: free substrate
[2] = molecular target: T1, Klenow fragment not having exonuclease activity (KF exo−) (Escherichia coli, UniProt P00582, D355A/E357A); type: biochemical; details: for Km / Vmax: 37° C., SD in parentheses
T1 construct: a Klenow fragment not having exonuclease activity; purchased Amersham USB
T1 sequence (P00582 324-928 D355A/E357A): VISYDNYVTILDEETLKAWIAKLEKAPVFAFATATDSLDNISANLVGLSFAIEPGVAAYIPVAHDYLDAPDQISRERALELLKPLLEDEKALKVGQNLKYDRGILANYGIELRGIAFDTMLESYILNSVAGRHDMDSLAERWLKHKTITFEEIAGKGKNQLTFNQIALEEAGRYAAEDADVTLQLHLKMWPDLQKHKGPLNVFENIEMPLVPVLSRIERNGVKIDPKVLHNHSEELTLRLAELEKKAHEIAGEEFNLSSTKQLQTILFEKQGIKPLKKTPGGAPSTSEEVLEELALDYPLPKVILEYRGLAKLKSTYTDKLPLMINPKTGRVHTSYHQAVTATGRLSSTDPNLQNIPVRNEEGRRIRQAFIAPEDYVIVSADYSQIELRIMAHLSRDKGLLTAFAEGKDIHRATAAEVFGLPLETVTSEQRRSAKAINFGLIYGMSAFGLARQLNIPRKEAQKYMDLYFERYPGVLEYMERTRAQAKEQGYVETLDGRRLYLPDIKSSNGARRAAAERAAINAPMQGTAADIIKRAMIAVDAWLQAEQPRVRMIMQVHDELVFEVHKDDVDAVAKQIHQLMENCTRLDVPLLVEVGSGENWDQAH
Procedure: An experiment of single-base incorporation by a Klenow fragment was performed with reference to documents (Kimoto, M., Yokoyama, S., Hirao, I., Biotechnol. Lett., 2004, 26, 999-1005; Petruska, J., Goodman, M. F., Boosalis, M. S., Sowers, L. C., Cheong, C., Tinoco, I., Proc. Natl. Acad. Sci. USA, 1988, 85, 6252-6256; Goodman, M. F., Creighton, S., Bloom, L. B., Petruska, J., Crit. Rev. Biochem. Mol. Biol., 1993, 28, 83-126; Morales, J. C., Kool, E. T., Nat. Struct. Biol., 1998, 5, 950-954).
Specifically, a primer (20-mer, 5′-[…]-3′ (SEQ ID NO: 4) or 5′-[…]-3′ (SEQ ID NO: 5)) labeled with 6-carboxyfluorescein at the 5′ end and a template DNA (35-mer, 5′-AGCTCTDss[…]-3′ (SEQ ID NO: 6) or 5′-[…]-3′ (N=Pn, A, G, C, or T) (SEQ ID NO: 7)) were heated in a 100 mM Tris-HCl buffer (pH 7.5) containing 20 mM MgCl2, 2 mM DTT, and 100 μg/mL bovine serum albumin (BSA) at 95° C. and were then gradually cooled to 4° C. for annealing to form a double strand of the template and the primer.
An enzyme solution (2 μL) of a Klenow fragment not having exonuclease activity (KF exo−, Amersham USB) was added to 5 μL of each primer-template double-stranded DNA solution (10 μM). The mixture was incubated at 37° C. for 2 minutes to form a DNA/enzyme complex. To this solution, 3 μL of each substrate solution, i.e., nucleoside triphosphate solution (Dss, Pn, or one of A, G, C, and T, 1 μM to 5 mM) was added, followed by an enzyme reaction at 37° C. (for 1 to 35 minutes). The reaction was terminated by adding 10 μL of a 20 mM EDTA solution in 95% formamide (stop solution) to the reaction solution and heating the solution at 75° C. for 3 minutes.
The reaction conditions are summarized as follows. For each solution (10 μL), 5 μM primer-template double strand, 5 to 50 nM enzyme, and 0.3 to 1500 μM substrate are used. The solution (10 μL) contains 50 mM Tris-HCl (pH 7.5), 10 mM MgCl2, 1 mM DTT, and 0.05 mg/mL BSA. The reaction is performed at 37° C. for 1 to 35 minutes.
A part of the reaction solution was diluted with the stop solution, and 0.5 μL of the diluted reaction solution was mixed with 3 μL of a loading solution (deionized formamide: 50 mg/mL blue dextran solution containing 25 mM EDTA=5:1). The solution mixture was heated at 90° C. for 2 minutes and then was rapidly cooled on ice. About 0.5 μL of the solution was loaded on every other lane of a sequencing gel for electrophoresis. The sequencing gel (36 cm WTR) was composed of 6 M urea, 10% polyacrylamide (acrylamide:bisacrylamide=19:1), and 0.5×TBE. The buffer used for the electrophoresis was 0.5×TBE. The Run Module was GS Run 36C-2400. The time for electrophoresis was about 1 hour, and the peak patterns of the reaction products were analyzed and quantitatively measured by an automated ABI377 DNA sequencer equipped with GeneScan software (version 3.0).
The proportion of the primer extended by one nucleotide was determined from the peak area of the unreacted primer fragment and the peak area of the DNA fragment extended by single-base incorporation, and enzymatic parameters Vmax and KM were calculated by Hanes-Woolf plot (Goodman, M. F., Creighton, S., Bloom, L. B., Petruska, J., Crit. Rev. Biochem. Mol. Biol., 1993, 28, 83-126). The Vmax value was standardized to 20 nM enzyme concentration and 5 μM double strand concentration for various enzyme and double-strand concentrations used.

[3] = template N = T, primer 5′-ACTCACTATAGGGAGCTTCT
[4] = template N = Dss, primer 5′-[…]
[5] = template N = A, primer 5′-ACTCACTATAGGGAGGAAGA

For “1-(2-deoxy-β-D-ribofuranosyl-4-[3-(Cy3-carboxamide hexanamide)-1-propynyl]-2-nitropyrrole 5′-triphosphate [Cy3-hx-dPxTP]”, the “fluorescence intensity of fluorescent molecule quenched when linked to Px base” value [1] was “about 30%”.
In the case of `Nc1ncnc2c1ncn2[C@H]1C[C@H](O)[C@@H](COP(=O)(O)OP(=O)(O)OP(=O)(O)O)O1` [dATP, deoxyriboadenosine triphosphate], the “Efficiency (Vmax/KM)” value [2, 3] is reported as 4.0 × 10^6 % min^−1 M^−1, the Km [2, 3] is reported as 0.81 µM and the Vmax [2, 3] is reported as 3.3 (1.8) % min^−1.
With `O=[N+]([O-])c1cccn1[C@H]1C[C@H](O)[C@@H](COP(=O)(O)OP(=O)(O)OP(=O)(O)O)O1` [dPnTP] the “Efficiency (Vmax/KM)” value [2, 4] was 1.1 × 10^5 % min^−1 M^−1, the Km [2, 4] was 100 µM and the Vmax [2, 4] was 11 (3) % min^−1.
With deoxyribothymidine triphosphate [dTTP] the “Efficiency (Vmax/KM)” value [2, 5] was 4.0 × 10^6 % min^−1 M^−1, the Km [2, 5] was 0.7 µM and the Vmax [2, 5] was 2.8 (1.5) % min^−1.
